According to patent US9458194B2, “Compounds useful in the treatment and/or care of the skin and their cosmetic or pharmaceutical compositions” (Lubrizol Advanced Materials, Inc., priority 2013, dated 2016):
Several values for one entry are separate records, joined by “and”; a condition that tells them apart may be missing. Equal values may be shown once.

How the values were obtained:
[1] = tested on: human fibulin-5 gene promoter; test: Luminescence assay of human fibulin-5 gene promoter activation (Firefly luciferase); assay type: cell-based; conditions: 16-24 hours
Description: The effect of the compounds of the invention on the activity of the fibulin-5 and LOXL1 promoters was studied and compared to the levels of basal expression of the untreated cells (negative control) and with the effect of Interleukin-1β (IL-1β) in the same conditions.
Cells from an epithelial cell line doubly transfected with fibulin-5 and LOXL1 human promoters in which the luciferase gene is under the regulatory control of said promoters (4×10^4 cells/well) were seeded in a white plate and in a 96-well transparent plate, both treated with polylysine, and were incubated in Dulbecco's Modified Eagle Medium (DMEM-Glutamax™), with 10% of FBS, 1% Penicillin-Streptomycin (P/S), 1 mg/ml of Geneticin® (G418) and […] at 37° C. in at atmosphere with 5% CO2. After the incubation, the cells were incubated for 6 hours at 37° C. in at atmosphere with 5% CO2 with DMEM without serum. Then, this medium was removed and the cells were treated with different compounds at 0.1 mg/ml, 0.5 mg/ml, 1 mg/ml or 2 mg/mL in DMEM/1% FBS for 16-24 hours. As a positive control to activate the fibulin-5 and LOXL1 promoters 10 ng/ml of IL-1β were used and as a negative control untreated cells were used, just with DMEM/1% FBS. The incubations and treatments were carried out in parallel in the white plate and the transparent plate and in triplicate for each condition. After the treatment, the relative light units per second were determined (RLU/s) in the white plate by means of consecutive quantification of the activities of Firefly luciferase (fibulin-5 promoter) and Renilla luciferase (LOXL1 promoter), and the number of total cells/well in the transparent plate by means of staining with Crystal Violet (CV). To determine the Firefly and Renilla luciferase activities the Dual-Glo Luciferase Assay System kit by Promega was used. The cells were briefly lysed and the Firefly luciferase substrate was added. After incubating for 10 min at 25° C., the RLU/s were quantified by luminescence reader (Lumistar-BMG). Then the Firefly signal was extinguished and the Renilla luciferase substrate was added. After incubating for 5 min at 25° C., the RLU/s were quantified by the same luminescence reader. With regard to the determination of the total number of cells by Crystal Violet, the CV dyes the DNA of the cells and the quantity of dye taken by the cells can be measured in an absorbency reader at 630 nm (Multiskan Ascent). The color obtained is directly proportional to the total number of cells per well. The cells were briefly incubated with 0.05% CV plus 4% Formalin for 20 minutes and after several washes with Milli-Q water, the cells were left to dry for 1-2 hours and then 0.1 M of HCl was added for its immediate reading. The RLU/s of the luciferases corresponding to each promoter were normalized by the average of the total number of cells per condition. Three independent assays with 3 measurements per assay were carried out for Ac-L-Asp-L-Val-L-Lys-L-Tyr-OH at 0.1 mg/mL and 1 mg/mL. 1 assay with 3 measurements was carried out for the other compounds and concentrations.
The increase in the activity of the promoters with regard to the levels of expression of the negative control was determined.

LOXL1 = test: Immunofluorescence of LOXL1 protein expression in human dermal fibroblasts; assay type: cell-based; conditions: 0.5 mg/mL, 48 hours, HDFa
Description: In this experiment the number of times that the expression of the proteins fibulin-5 and LOXL1 in human dermal fibroblasts is increased with regard to the basal levels in untreated cells (negative control) when treating the cells with 0.5 mg/ml of the product Ac-L-Asp-L-Val-L-Lys-L-Tyr-OH and it is compared with the effect of Interleukin-1β (IL-1β) at 20 ng/ml and TGF-β at 5 ng/ml (positive controls), which increase an average of 1.5 times and 2 times, respectively, the expression of these proteins, in the same conditions.
Adult human dermal fibroblasts were seeded (HDFa) (2.5×10^3 cells/well) in a 96-well transparent plate, treated with polylysine, and were incubated in complete medium 106 for 72 hours at 37° C. in an atmosphere with 5% CO2. After the incubation, the cells were treated with the different compounds in complete medium 106 for 48 hours at 37° C. in an atmosphere with 5% CO2. As positive controls of increase of the expression of the proteins fibulin-5 and LOXL1, 5 ng/ml of TGF-β and 20 ng/ml of IL-1β were used and as a negative control untreated cells were used, just with complete medium 106. The incubations and the treatments were carried out in quadruplicate for each condition. After the treatment, the levels of expression of both proteins were quantified relatively by using specific fluorescent antibodies, photographic recording by microscopy and subsequent quantification of the fluorescent signal using image processing software, the number of total cells by fluorescent staining of the nuclei (DAPI) and subsequent quantification in the same images. […] 16 hours later all the samples were stained with DAPI (4′,6-Diamidino-2-Phenylindole), fluorescent marker for the staining of nuclei, and the photographic recording was carried out by fluorescence microscopy in a Leica microscope. 2-4 images were taken per condition and per protein and the fluorescent signals were quantified (IOD) corresponding to each protein and the nuclei by means of image analysis software. […]

## Ac-L-Asp-L-Val-L-Lys-L-Tyr-OH (Ac-DVKY-OH)
[1]; 0.1 mg/mL
  Increase in the activity of the human promoter of the FIBULIN 5 gene with regard to the negative control: 7.46%
[1]; 1 mg/mL
  Increase in the activity of the human promoter of the FIBULIN 5 gene with regard to the negative control: 19% and 19.40%
[1]; 2 mg/mL
  Increase in the activity of the human promoter of the FIBULIN 5 gene with regard to the negative control: 53.20%
LOXL1
  Increase in the expression of the protein LOXL1 with regard to the negative control: 73% and 72.71%
